Biological target: T1, Human BCL6 protein (N-terminal HiBiT tagged BCL6 in HT1080 cells) (Homo sapiens, UniProt P41182+Q96SW2)
T1 construct: Human BCL6 protein coding open reading frame; expressed in transfected cells; host or cells: HT1080 (ATCC CCL-121), stably transduced with lentivirus pLV-UBC-N-HiBiT-BCL6-PGK-puro
Experiment: HiBiT based BCL6 degradation assay
Type: cell-based
Details: HT1080 cells expressing N-terminal HiBiT tagged BCL6; 5 hours incubation; BCL6 degradation normalized with DMSO control
From the text: Human BCL6 protein coding open reading frame fused with N-terminal HiBiT coding sequence was synthesized from Integrated DNA Technologies (IDT). Next, the N-HiBiT-BCL6 sequence was cloned into pLV-UBC-PGK-Puro, a lentivirus plasmid purchased from Vectorbuilder, to generate pLV-UBC-N-HiBiT-BCL6-PGK-puro. Lentiviral particles were generated from Lenti-X™ 293T cells (Clontech) by co-transfection of pLV-UBC-N-HiBiT-BCL6-PGK-puro plasmids and lentiviral packaging plasmid mix (Cellecta). HT1080 [HT1080] (ATCC CCL-121) cells were infected with the lentivirus, and HT1080 cells stably integrated with the lentiviral vectors were established by incubation with 1 μg/mL puromycin (Thermofisher).
HT1080 cells expressing N-terminal HiBiT tagged BCL6 were dispensed into a 384-well plate pre-spotted with compounds at varying concentrations. Five thousand cells were seeded into each well in 40 μL of RPMI 1640 media plus 10% Fetal Bovine Serum (10082-147, Thermofisher). After 5 hours of incubation at 37° C. with 5% CO2, 30 μL of the NANO-GLO® HiBiT Lytic Detection System working solution (Promega) was added to each well and incubated at room temperature for 15 min. After incubation, luminescence was read on a PHERAstar FSX Plate Reader (BMG). BCL6 degradation at each indicated concentration was normalized with DMSO control. The BCL6 degradation curves were plotted using a four-parameter logistic model.

Row | SMILES | Ymin (5 hr)
1 | CNC(=O)COc1cc2cc(Nc3nc(N4CCC[C@H](CCNc5ccc6c(C7CCC(=O)NC7=O)nn(C)c6c5)C4)ncc3Cl)ccc2n(C)c1=O (single isomer, unassigned) [Compound 290a] | ++ (50% < Ymin ≤ 70%)
2 | CNC(=O)COc1cc2cc(Nc3nc(N4CCC[C@@H](CCNc5ccc6c(C7CCC(=O)NC7=O)nn(C)c6c5)C4)ncc3Cl)ccc2n(C)c1=O (single isomer, unassigned) [Compound 290b] | +++ (25% < Ymin ≤ 50%)
3 | CNC(=O)COc1cc2cc(Nc3nc(N4CCC[C@H](CCNc5cccc6c(C7CCC(=O)NC7=O)nn(C)c56)C4)ncc3Cl)ccc2n(C)c1=O (single isomer, unassigned) [Compound 294b] | ++ (50% < Ymin ≤ 70%)
4 | CNC(=O)COc1cc2cc(Nc3nc(N4CCN([C@@H](C)C5CCN(c6cccc7c(C8CCC(=O)NC8=O)nn(C)c67)CC5)CC4)ncc3Cl)ccc2n(C)c1=O (single isomer, unassigned) [Compound 307a] | ++++ (Ymin ≤ 25%)
5 | CNC(=O)COc1cc2cc(Nc3nc(N4CCN([C@H](C)C5CCN(c6cccc7c(C8CCC(=O)NC8=O)nn(C)c67)CC5)CC4)ncc3Cl)ccc2n(C)c1=O (single isomer, unassigned) [Compound 307b] | +++ (25% < Ymin ≤ 50%)
6 | CNC(=O)COc1cc2cc(Nc3nc(N4CCC[C@@H](CCNc5cccc6c(C7CCC(=O)NC7=O)nn(C)c56)C4)ncc3Cl)ccc2n(C)c1=O (stereo in doubt) [Compound 294a, rel-2-((6-((5-chloro-2-((3S)-3-(2-((3-(2,6-dioxopiperidin-3-yl)-1-methyl-1H-indazol-7-yl)amino)ethyl)piperidin-1-yl)pyrimidin-4-yl)amino)-1-methyl-2-oxo-1,2-dihydroquinolin-3-yl)oxy)-N-methylacetamide] | ++ (50% < Ymin ≤ 70%)
7 | CNC(=O)COc1cc2cc(Nc3nc(N4CCN(CC5CCC6(CC5)CN(c5ccc7c(C8CCC(=O)NC8=O)nn(C)c7c5)C6)CC4)ncc3Cl)ccc2n(C)c1=O (centres unmarked) [Compound 103, 2-((6-((5-chloro-2-(4-((2-(3-(2,6-dioxopiperidin-3-yl)-1-methyl-1H-indazol-6-yl)-2-azaspiro[3.5]nonan-7-yl)methyl)piperazin-1-yl)pyrimidin-4-yl)amino)-1-methyl-2-oxo-1,2-dihydroquinolin-3-yl)oxy)-N-methylacetamide] | ++++ (Ymin ≤ 25%)
8 | CNC(=O)COc1cc2cc(Nc3nc(N4CCN(CC5CCC6(CC5)CN(c5cccc7c(C8CCC(=O)NC8=O)nn(C)c57)C6)CC4)ncc3Cl)ccc2n(C)c1=O (centres unmarked) [Compound 104, 2-((6-((5-chloro-2-(4-((2-(3-(2,6-dioxopiperidin-3-yl)-1-methyl-1H-indazol-7-yl)-2-azaspiro[3.5]nonan-7-yl)methyl)piperazin-1-yl)pyrimidin-4-yl)amino)-1-methyl-2-oxo-1,2-dihydroquinolin-3-yl)oxy)-N-methylacetamide] | +++ (25% < Ymin ≤ 50%)
9 | CNC(=O)COc1cc2cc(Nc3nc(N4CCC(CNC(=O)c5cccc(C6CCC(=O)NC6=O)c5)CC4)ncc3Cl)ccc2n(C)c1=O (centres unmarked) [Compound 105, N-((1-(5-chloro-4-((1-methyl-3-(2-(methylamino)-2-oxoethoxy)-2-oxo-1,2-dihydroquinolin-6-yl)amino)pyrimidin-2-yl)piperidin-4-yl)methyl)-3-(2,6-dioxopiperidin-3-yl)benzamide] | ++ (50% < Ymin ≤ 70%)
10 | CNC(=O)COc1cc2cc(Nc3nc(N4CCC[C@H](CNc5ccc(C6CCC(=O)NC6=O)cc5)C4)ncc3Cl)ccc2n(C)c1=O (stereo partly drawn) [Compound 106a, 2-((6-((5-chloro-2-((3R)-3-(((4-(2,6-dioxopiperidin-3-yl)phenyl)amino)methyl)piperidin-1-yl)pyrimidin-4-yl)amino)-1-methyl-2-oxo-1,2-dihydroquinolin-3-yl)oxy)-N-methylacetamide] | ++ (50% < Ymin ≤ 70%)
11 | CNC(=O)COc1cc2cc(Nc3nc(N4CCC[C@@H](CNc5ccc(C6CCC(=O)NC6=O)cc5)C4)ncc3Cl)ccc2n(C)c1=O (stereo partly drawn) [Compound 106b, 2-((6-((5-chloro-2-((3S)-3-(((4-(2,6-dioxopiperidin-3-yl)phenyl)amino)methyl)piperidin-1-yl)pyrimidin-4-yl)amino)-1-methyl-2-oxo-1,2-dihydroquinolin-3-yl)oxy)-N-methylacetamide] | ++ (50% < Ymin ≤ 70%)
12 | CNC(=O)COc1cc2cc(Nc3nc(N4CCN(CC5CCN(c6cccc7c(C8CCC(=O)NC8=O)nn(C)c67)CC5)CC4)ncc3Cl)ccc2n(C(C)C)c1=O (centres unmarked) [Compound 107, 2-((6-((5-chloro-2-(4-((1-(3-(2,6-dioxopiperidin-3-yl)-1-methyl-1H-indazol-7-yl)piperidin-4-yl)methyl)piperazin-1-yl)pyrimidin-4-yl)amino)-1-isopropyl-2-oxo-1,2-dihydroquinolin-3-yl)oxy)-N-methylacetamide] | ++++ (Ymin ≤ 25%)
13 | CNC(=O)COc1cc2cc(Nc3nc(N4CCN(CC5CCN(c6ccc7c(C8CCC(=O)NC8=O)nn(C)c7c6)CC5)CC4)ncc3Cl)ccc2n(C(C)C)c1=O (centres unmarked) [Compound 108, 2-((6-((5-chloro-2-(4-((1-(3-(2,6-dioxopiperidin-3-yl)-1-methyl-1H-indazol-6-yl)piperidin-4-yl)methyl)piperazin-1-yl)pyrimidin-4-yl)amino)-1-isopropyl-2-oxo-1,2-dihydroquinolin-3-yl)oxy)-N-methylacetamide] | +++ (25% < Ymin ≤ 50%)
14 | CNC(=O)COc1cc2cc(Nc3nc(N4CCC[C@@H]4CNc4cccc(C5CCC(=O)NC5=O)c4)ncc3Cl)ccc2n(C)c1=O (stereo partly drawn) [Compound 260a, 2-((6-((5-chloro-2-((2R)-2-(((3-(2,6-dioxopiperidin-3-yl)phenyl)amino)methyl)pyrrolidin-1-yl)pyrimidin-4-yl)amino)-1-methyl-2-oxo-1,2-dihydroquinolin-3-yl)oxy)-N-methylacetamide] | ++ (50% < Ymin ≤ 70%)
15 | CNC(=O)COc1cc2cc(Nc3nc(N4CCC[C@H]4CNc4cccc(C5CCC(=O)NC5=O)c4)ncc3Cl)ccc2n(C)c1=O (stereo partly drawn) [Compound 260b, 2-((6-((5-chloro-2-((2S)-2-(((3-(2,6-dioxopiperidin-3-yl)phenyl)amino)methyl)pyrrolidin-1-yl)pyrimidin-4-yl)amino)-1-methyl-2-oxo-1,2-dihydroquinolin-3-yl)oxy)-N-methylacetamide] | + (Ymin > 70%)
16 | CNC(=O)COc1cc2cc(Nc3nc(N4CCC[C@@H](CNc5ccc6c(C7CCC(=O)NC7=O)nn(C)c6c5)C4)ncc3Cl)ccc2n(C)c1=O (stereo partly drawn) [Compound 261a, 2-((6-((5-chloro-2-((3S)-3-(((3-(2,6-dioxopiperidin-3-yl)-1-methyl-1H-indazol-6-yl)amino)methyl)piperidin-1-yl)pyrimidin-4-yl)amino)-1-methyl-2-oxo-1,2-dihydroquinolin-3-yl)oxy)-N-methylacetamide] | ++ (50% < Ymin ≤ 70%)
17 | CNC(=O)COc1cc2cc(Nc3nc(N4CCC[C@H](CNc5ccc6c(C7CCC(=O)NC7=O)nn(C)c6c5)C4)ncc3Cl)ccc2n(C)c1=O (stereo partly drawn) [Compound 261b, 2-((6-((5-chloro-2-((3R)-3-(((3-(2,6-dioxopiperidin-3-yl)-1-methyl-1H-indazol-6-yl)amino)methyl)piperidin-1-yl)pyrimidin-4-yl)amino)-1-methyl-2-oxo-1,2-dihydroquinolin-3-yl)oxy)-N-methylacetamide] | +++ (25% < Ymin ≤ 50%)
18 | CNC(=O)COc1cc2cc(Nc3nc(NC[C@H]4CC[C@@H](Nc5cccc(C6CCC(=O)NC6=O)c5)CC4)ncc3Cl)ccc2n(C)c1=O (some centres unmarked) [Compound 262a, 2-((6-((5-chloro-2-((((1s,4s)-4-((3-(2,6-dioxopiperidin-3-yl)phenyl)amino)cyclohexyl)methyl)amino)pyrimidin-4-yl)amino)-1-methyl-2-oxo-1,2-dihydroquinolin-3-yl)oxy)-N-methylacetamide] | ++ (50% < Ymin ≤ 70%)
19 | CNC(=O)COc1cc2cc(Nc3nc(NC[C@H]4CC[C@H](Nc5cccc(C6CCC(=O)NC6=O)c5)CC4)ncc3Cl)ccc2n(C)c1=O (some centres unmarked) [Compound 262b, 2-((6-((5-chloro-2-((((1r,4r)-4-((3-(2,6-dioxopiperidin-3-yl)phenyl)amino)cyclohexyl)methyl)amino)pyrimidin-4-yl)amino)-1-methyl-2-oxo-1,2-dihydroquinolin-3-yl)oxy)-N-methylacetamide] | ++ (50% < Ymin ≤ 70%)
20 | CNC(=O)COc1cc2cc(Nc3nc(N4CCC(CCNc5cccc(C6CCC(=O)NC6=O)c5)CC4)ncc3Cl)ccc2n(C)c1=O (centres unmarked) [Compound 263, 2-((6-((5-chloro-2-(4-(2-((3-(2,6-dioxopiperidin-3-yl)phenyl)amino)ethyl)piperidin-1-yl)pyrimidin-4-yl)amino)-1-methyl-2-oxo-1,2-dihydroquinolin-3-yl)oxy)-N-methylacetamide] | ++ (50% < Ymin ≤ 70%)

Reference: patent US20250270191A1, “QUINOLONE BCL6 BIFUNCTIONAL DEGRADERS” (Treeline Biosciences, Inc., priority 2022, published 2025)
